Assay results as given in patent US20020160988A1 (priority 2001, published 2002).
pIC50, pKi: −log10 of the molar value. Where two headings read alike, the source gives them in different places.

How the values were obtained:
[1] = target: T1, human plasma butyrylcholinesterase (HuBChE) (Homo sapiens, UniProt P06276); test: biochemical
[2] = target: T2, fetal bovine serum-AChE (FBS-AChE) (Bos taurus, UniProt P23795); details: for t½(ks): bovine, serum
T2 sequence (P23795 31-613): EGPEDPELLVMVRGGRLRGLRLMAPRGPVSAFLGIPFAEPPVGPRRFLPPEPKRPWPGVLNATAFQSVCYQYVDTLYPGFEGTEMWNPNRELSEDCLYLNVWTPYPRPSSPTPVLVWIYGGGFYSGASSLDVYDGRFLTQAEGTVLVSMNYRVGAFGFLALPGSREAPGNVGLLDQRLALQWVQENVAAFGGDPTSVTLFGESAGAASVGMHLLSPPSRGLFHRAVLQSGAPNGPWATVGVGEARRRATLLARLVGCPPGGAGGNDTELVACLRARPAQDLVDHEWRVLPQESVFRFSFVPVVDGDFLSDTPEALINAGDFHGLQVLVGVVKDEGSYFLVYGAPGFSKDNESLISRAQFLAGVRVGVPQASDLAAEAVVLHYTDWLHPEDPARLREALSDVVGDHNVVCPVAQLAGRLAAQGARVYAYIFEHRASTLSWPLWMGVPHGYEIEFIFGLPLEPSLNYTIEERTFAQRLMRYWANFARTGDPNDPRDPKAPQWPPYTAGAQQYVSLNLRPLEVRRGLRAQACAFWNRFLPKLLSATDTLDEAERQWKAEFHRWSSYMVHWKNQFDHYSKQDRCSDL

[3] = target: T3, recombinant human acetylcholineesterase (rHuAChE) (Homo sapiens, UniProt P22303); test: biochemical
T3 sequence (P22303 32-614): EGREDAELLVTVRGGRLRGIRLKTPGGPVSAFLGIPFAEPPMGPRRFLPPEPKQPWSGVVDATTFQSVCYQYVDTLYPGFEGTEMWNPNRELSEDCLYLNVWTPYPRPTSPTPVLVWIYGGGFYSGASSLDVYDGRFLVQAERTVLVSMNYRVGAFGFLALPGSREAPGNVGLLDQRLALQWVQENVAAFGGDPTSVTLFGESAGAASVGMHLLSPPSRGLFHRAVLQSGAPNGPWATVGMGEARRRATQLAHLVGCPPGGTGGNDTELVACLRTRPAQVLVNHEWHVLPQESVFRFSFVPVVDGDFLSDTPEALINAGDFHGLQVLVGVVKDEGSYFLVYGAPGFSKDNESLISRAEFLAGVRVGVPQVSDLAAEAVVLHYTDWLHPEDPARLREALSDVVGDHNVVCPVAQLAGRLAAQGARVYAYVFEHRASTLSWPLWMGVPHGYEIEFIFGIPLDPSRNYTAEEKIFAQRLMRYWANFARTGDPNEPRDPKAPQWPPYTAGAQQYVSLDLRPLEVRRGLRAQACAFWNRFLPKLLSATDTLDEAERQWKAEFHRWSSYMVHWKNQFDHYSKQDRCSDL

[4] = target: T1, human plasma butyrylcholinesterase (HuBChE); details: for t½(ks): human, plasma
in vivo = details: mouse
physchem = details: pH 7.4
[5] = target: T2, fetal bovine serum-AChE (FBS-AChE); test: biochemical
[6] = target: T3, recombinant human acetylcholineesterase (rHuAChE); details: for t½(ks): human, recombinant enzyme
mice [7] = details: mouse, in vivo
mice [8] = details: mouse, in vivo; remark: listed apart in the source
whole blood ChE = system: whole blood ChE; parameters: species or system mice; details: mouse, in vivo, 0.13 mg/kg
COX II (sheep placenta) = COX II (sheep placenta) (Ovis aries, UniProt P79208); test: biochemical; details: read-out: % Inhibition COX II
Sequence of COX II (sheep placenta) (P79208 17-603): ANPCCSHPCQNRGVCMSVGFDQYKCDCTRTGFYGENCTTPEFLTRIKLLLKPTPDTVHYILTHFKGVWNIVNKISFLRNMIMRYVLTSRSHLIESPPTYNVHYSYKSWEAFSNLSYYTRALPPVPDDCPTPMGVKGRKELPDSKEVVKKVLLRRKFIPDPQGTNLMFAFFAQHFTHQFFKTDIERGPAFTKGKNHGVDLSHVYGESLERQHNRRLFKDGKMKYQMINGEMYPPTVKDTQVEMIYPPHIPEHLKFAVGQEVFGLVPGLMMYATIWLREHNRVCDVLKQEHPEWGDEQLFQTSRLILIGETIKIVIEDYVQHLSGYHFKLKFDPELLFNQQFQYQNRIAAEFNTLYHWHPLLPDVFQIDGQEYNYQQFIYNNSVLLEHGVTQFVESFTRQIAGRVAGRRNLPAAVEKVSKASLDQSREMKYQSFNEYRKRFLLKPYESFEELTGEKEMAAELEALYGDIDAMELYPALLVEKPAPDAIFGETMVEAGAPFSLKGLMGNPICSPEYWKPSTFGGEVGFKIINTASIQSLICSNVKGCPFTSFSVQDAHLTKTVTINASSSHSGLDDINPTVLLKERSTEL

[9] = target: COX I (bovine seminal vesicles) (Bos taurus, UniProt O62664); test: biochemical; details: read-out: % Inhibition COX I
Sequence of COX I (bovine seminal vesicles) (O62664 25-600): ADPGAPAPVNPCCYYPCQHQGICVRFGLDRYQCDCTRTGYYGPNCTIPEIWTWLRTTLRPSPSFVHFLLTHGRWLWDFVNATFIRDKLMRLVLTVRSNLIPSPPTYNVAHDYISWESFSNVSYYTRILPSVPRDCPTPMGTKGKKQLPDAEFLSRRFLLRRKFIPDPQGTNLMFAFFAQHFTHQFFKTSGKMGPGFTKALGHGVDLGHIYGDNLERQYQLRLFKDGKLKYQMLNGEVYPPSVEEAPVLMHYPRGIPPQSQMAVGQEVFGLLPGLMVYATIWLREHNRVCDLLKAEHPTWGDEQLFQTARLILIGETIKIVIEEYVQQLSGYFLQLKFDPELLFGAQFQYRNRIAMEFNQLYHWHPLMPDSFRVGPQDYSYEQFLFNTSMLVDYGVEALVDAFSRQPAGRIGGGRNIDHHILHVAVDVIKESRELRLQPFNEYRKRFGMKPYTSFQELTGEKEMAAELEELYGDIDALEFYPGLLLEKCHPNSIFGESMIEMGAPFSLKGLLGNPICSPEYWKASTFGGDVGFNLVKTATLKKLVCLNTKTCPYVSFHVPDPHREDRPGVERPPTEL

CAR-induced brain edema = system: CAR-induced brain edema; parameters: species or system rats; details: rat, in vivo
[10] = system: carrageenan-induced rat paw edema; details: in vivo

T1 sequence (P06276 29-602): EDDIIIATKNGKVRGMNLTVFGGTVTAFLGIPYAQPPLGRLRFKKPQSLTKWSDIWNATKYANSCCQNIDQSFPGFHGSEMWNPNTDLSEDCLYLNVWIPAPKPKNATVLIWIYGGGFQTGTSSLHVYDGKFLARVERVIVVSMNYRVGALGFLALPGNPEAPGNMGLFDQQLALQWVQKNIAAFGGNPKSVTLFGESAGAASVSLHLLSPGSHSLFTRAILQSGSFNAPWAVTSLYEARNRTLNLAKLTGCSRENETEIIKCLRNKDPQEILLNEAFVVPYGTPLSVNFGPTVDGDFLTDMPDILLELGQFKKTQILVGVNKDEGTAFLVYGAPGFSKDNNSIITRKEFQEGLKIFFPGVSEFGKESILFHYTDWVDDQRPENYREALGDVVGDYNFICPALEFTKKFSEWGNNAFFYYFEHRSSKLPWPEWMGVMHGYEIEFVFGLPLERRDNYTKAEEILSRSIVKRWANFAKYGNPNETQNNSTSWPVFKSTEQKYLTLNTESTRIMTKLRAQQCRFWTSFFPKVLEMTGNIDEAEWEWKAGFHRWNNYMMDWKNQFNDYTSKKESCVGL

CC(C)Cc1ccc(C(C)C(=O)OCCCCCCCCN2CCC=C(OC(=O)N(C)C)C2)cc1 (stereo not shown) [IBU-4H-PO]
pKi [1]: 5.80
K′ [2]: 1.9 min⁻¹
ki (bimolecular rate constant) [2]: 2.8 × 10^4 M^−1m^−1
ks × 10^3 [2]: 20 minutes^−1
t½(ks) [2]: 0.575 h
pKi [3]: 4.92
K′ [4]: 0.19 min⁻¹
ki (bimolecular rate constant) [4]: 1.2 × 10^5 M^−1m^−1
ks × 10^3 [4]: 0.9 minutes^−1
t½(ks) [4]: 13.2 h
LD50 (in vivo; ip): 54.2 mg/kg
logD (physchem): 2
pKi [5]: 4.18
K′ [6]: 0.23 min⁻¹
ki (bimolecular rate constant) [6]: 1.9 × 10^4 M^−1m^−1
ks × 10^3 [6]: 6.9 minutes^−1
t½(ks) [6]: 1.67 h

CN1[C@@H]2CC[C@H]1C[C@@H](OC(=O)C(CO)c1ccccc1)C2 (stereo partly shown) [atropine]
effect of pretreatment on IBU-PO-induced hypothermia (mice [7]): partially reverses the hypothermia

3-Dimethylcarbamoyl-1-{7-[2-(4-isobutyl-phenyl)-propionylamino]-heptyl}-pyridinium bromide [IBU-Am-PH]
pKi [6]: 7.33
K′ [6]: 0.13 min⁻¹
ki (bimolecular rate constant) [6]: 2.8 × 10^6 M^−1m^−1
ks × 10^3 [6]: 27 minutes^−1

CC(=O)Oc1ccccc1C(=O)O [ASPIRIN, aspirin]
LD50 (in vivo; ip): > 100 mg/kg

CNC1(C)C2CCC(C2)C1(C)C (stereo not shown) [mecamylamine]
time of maximal IBU-PO-induced hypothermia after pretreatment (mice [7]): 60 min

COC(=O)C1=CCCN(C)C1 [Arecoline, arecoline]
pIC50 [3]: < 4.00
mode of AChE inhibition [6]: reversible inhibition of AChE

COC(=O)c1cccnc1 [MN, methyl nicotinate]
pIC50 [3]: < 4.00
mode of AChE inhibition [6]: reversible inhibition of AChE

CNC(=O)Oc1ccc2c(c1)[C@]1(C)CCN(C)[C@@H]1N2C [physostigmine]
Therapeutic Index (TI = LD50/ED50) (mice [8]): 3.4

CN(C)C(=O)Oc1ccc[n+](C)c1 [PYR, pyridostigmine]
K′ [2]: 0.31 min⁻¹
ki (bimolecular rate constant) [2]: 2.5 × 10^5 M^−1m^−1
ks × 10^3 [2]: 10 minutes^−1
t½(ks) [2]: 1.15 h
K′ [4]: 0.08 min⁻¹
ki (bimolecular rate constant) [4]: 7.3 × 10^4 M^−1m^−1
ks × 10^3 [4]: 7.1 minutes^−1
t½(ks) [4]: 1.62 h
LD50 (in vivo; im): 2.1 mg/kg
LD50 (in vivo; ip): 5.1 mg/kg
pKi [5]: 5.92
ChE inhibition (whole blood ChE): less than 20%
duration time of ChE inhibition (whole blood ChE): 1 to 1.5 h
K′ [6]: 0.40 min⁻¹
ki (bimolecular rate constant) [6]: 2.7 × 10^5 M^−1m^−1
ks × 10^3 [6]: 9.2 minutes^−1
t½(ks) [6]: 1.25 h

Nc1c2c(nc3ccccc13)CCCC2 [TACRINE]
Therapeutic Index (TI = LD50/ED50) (mice [8]): 3.5

COc1ccc2cc([C@H](C)C(=O)O)ccc2c1 [NAPRO, naproxen]
inhibition at 1 µM (COX II (sheep placenta)): 85%
inhibition at 1 µM [9]: 37%

CC(C)Cc1ccc(C(C)C(=O)O)cc1 (stereo not shown) [IBU, ibuprofen]
LD50 (in vivo; im): > 100 mg/kg
brain % water content (CAR-induced brain edema): 83%
edema level (% EDEMA) after treatment [10]: about 30%

CCN(C)C(=O)Oc1cccc([C@H](C)N(C)C)c1 [EXELON]
Therapeutic Index (TI = LD50/ED50) (mice [8]): 12.5

COc1ccc2c(c1)c(CC(=O)O)c(C)n2C(=O)c1ccc(Cl)cc1 [INDO, indomethacin]
LD50 (in vivo; ip): 12.4 mg/kg
edema level (% EDEMA) after treatment [10]: about 30%
